Data as given in US9309263B2, “Fused multi-cyclic sulfone compounds as inhibitors of beta-secretase and methods of use thereof” (AMGEN INC., priority 2013, dated 2016).
Where two headings read alike, the source gives them in different places.

Tests used:
Cathepsin D (Cat D) = Cathepsin D (Cat D) (Homo sapiens, UniProt P07339); experiment: In vitro enzymatic Cathepsin D (Cat D) FRET assay; type: biochemical
How it was run: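 Recombinant CHO-expressed enzyme (9 nM) pre-incubated 1 h with serially diluted inhibitor in 0.05 M citrate pH 3.5, 10% DMSO final, 5 mM CHAPS. Reaction started with 20 nM FRET peptide substrate, run 1 h, stopped with Tris to neutral pH; fluorescence read at ex 500/em 580 nm.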

[1] = test system: Aβ 40 in conditioned medium of cells stably expressing Amyloid Precursor Protein (APP); experiment: In vitro BACE cell-based assay (Aβ 40 sandwich ELISA); conditions: Homo sapiens, HEK293
How it was run: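 APP-expressing cells, 24 h pre-culture in DMEM/10% FBS, treated 24 h with 10-point compound dilutions from 100 or 10 μM top, 0.1% DMSO final. Secreted Aβ40 quantified by sandwich ELISA (pAb40 capture, biotinylated 6E10 detection, europium TRF); IC50 from percent inhibition versus concentration.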

[2] = biological target: Beta Secretase enzyme (BACE) (Homo sapiens, UniProt P56817); experiment: In vitro enzymatic BACE FRET assay; type: biochemical; conditions: read-out: BACE1 FRET assay IC50
Beta Secretase enzyme (BACE), sequence (P56817 46-501): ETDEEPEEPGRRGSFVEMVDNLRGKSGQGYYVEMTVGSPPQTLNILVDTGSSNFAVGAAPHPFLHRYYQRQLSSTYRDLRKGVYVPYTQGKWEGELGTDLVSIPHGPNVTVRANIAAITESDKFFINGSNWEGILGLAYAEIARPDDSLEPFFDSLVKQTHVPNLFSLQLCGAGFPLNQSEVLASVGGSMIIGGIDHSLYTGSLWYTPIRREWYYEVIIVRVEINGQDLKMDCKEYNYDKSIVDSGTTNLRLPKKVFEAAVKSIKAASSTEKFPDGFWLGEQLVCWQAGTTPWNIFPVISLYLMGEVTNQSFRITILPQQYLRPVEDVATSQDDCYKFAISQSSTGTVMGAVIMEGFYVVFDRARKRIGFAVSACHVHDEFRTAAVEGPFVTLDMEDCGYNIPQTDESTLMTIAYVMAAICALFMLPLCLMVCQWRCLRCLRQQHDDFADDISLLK
How it was run: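 Enzyme (0.2 nM) pre-incubated 1 h with serially diluted inhibitors in 0.05 M acetate pH 4.2, 10% DMSO, 100 uM genapol. Reaction started with 50 nM fluorophore/quencher peptide FRET substrate, run 1 h, stopped with Tris to neutral pH. Fluorescence read at excitation 488 nm, […].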

[3] = text summary referring to data in Table 2
[4] = Cathepsin D FRET assay, read-out: CatD IC50
[5] = average IC50, HEK cell assay, Aβ 40 readout
[6] = average IC50, in vitro enzymatic BACE FRET assay

Cathepsin D (Cat D), sequence (P07339 65-412, species assumed): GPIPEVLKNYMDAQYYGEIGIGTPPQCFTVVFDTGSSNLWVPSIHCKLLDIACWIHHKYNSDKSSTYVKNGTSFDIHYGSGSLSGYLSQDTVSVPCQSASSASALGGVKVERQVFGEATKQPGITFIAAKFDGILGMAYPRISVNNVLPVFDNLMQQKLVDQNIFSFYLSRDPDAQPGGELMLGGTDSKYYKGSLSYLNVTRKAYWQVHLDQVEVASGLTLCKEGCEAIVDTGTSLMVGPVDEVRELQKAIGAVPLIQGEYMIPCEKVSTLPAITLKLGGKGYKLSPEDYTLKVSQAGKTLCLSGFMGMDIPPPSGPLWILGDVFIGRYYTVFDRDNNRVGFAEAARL

| SMILES | IC50 (Cathepsin D (Cat D); read-out: CatD IC50) | IC50 ([1]; HEK cell, average IC50) | IC50 ([2]; average IC50) | IC50 ([1]; HEK cells, average IC50) | IC50 (Cathepsin D (Cat D); [3]) | IC50 (Cathepsin D (Cat D); [4]) | IC50 [1, 5] | IC50 [2, 6] |
| --- | --- | --- | --- | --- | --- | --- | --- | --- |
| Cc1c(C(=O)Nc2ccc3c(c2)[C@@]2(C)N=C(N)C(C)(C)S(=O)(=O)[C@@H]2C[C@H](C)O3)nc2ccc(Cl)cn12 [Example 77, N-((4aR,6S,11bR)-2-amino-3,3,6,11b-tetramethyl-4,4-dioxido-4a,5,6,11b-tetrahydro-3H-[1]benzoxepino[4,5-b][1,4]thiazin-10-yl)-6-chloro-3-methylimidazo[1,2-a]pyridine-2-carboxamide] | 396 µM | 0.005 µM | 0.017 µM | – | – | – | – | – |
| CC1(C)C(N)=N[C@]2(C)c3cc(NC(=O)c4ccc(Cl)cn4)ccc3CCC[C@@H]2S1(=O)=O [Example 38, N-((4aS,11bR)-2-amino-3,3,11b-trimethyl-4,4-dioxido-3,4a,5,6,7,11b-hexahydrobenzo[3,4]cyclohepta[1,2-b][1,4]thiazin-10-yl)-5-chloro-2-pyridinecarboxamide] | > 400 µM | 0.15 µM | 0.099 µM | – | – | – | – | – |
| CCCOc1cnc(C(=O)Nc2ccc3c(c2)[C@@]2(C)N=C(N)C(C)(C)S(=O)(=O)[C@@H]2C[C@H](C)O3)cn1 [Example 79, N-((4aR,6S,11bR)-2-amino-3,3,6,11b-tetramethyl-4,4-dioxido-4a,5,6,11b-tetrahydro-3H-[1]benzoxepino[4,5-b][1,4]thiazin-10-yl)-5-propoxy-2-pyrazinecarboxamide] | 841 µM | 0.016 µM | 0.005 µM | – | – | – | – | – |
| CC1(C)C(N)=N[C@]2(C)c3cc(NC(=O)c4ncc(Cl)cc4Cl)ccc3OCC[C@H]2S1(=O)=O [Example 24, N-((4aR,11bR)-2-amino-3,3,11b-trimethyl-4,4-dioxido-4a,5,6,11b-tetrahydro-3H-[1]benzoxepino[4,5-b][1,4]thiazin-10-yl)-3,5-dichloro-2-pyridinecarboxamide] | 969 µM | 0.001 µM | 0.003 µM | – | > 800 µM | – | – | – |
| COc1cnc2c(Nc3ccc4c(c3)[C@@]3(C)N=C(N)C(C)(C)S(=O)(=O)[C@@H]3C[C@H](C)O4)ncc(F)c2c1 [Example 52, (4aR,6S,11bR)-N^~10^~-(5-fluoro-3-methoxy-1,7-naphthyridin-8-yl)-3,3,6,11b-tetramethyl-4a,5,6,11b-tetrahydro-3H-[1]benzoxepino[4,5-b][1,4]thiazine-2,10-diamine 4,4-dioxide] | 174 µM | 0.022 µM | 0.014 µM | – | – | – | – | – |
| COc1cnc2c(Nc3cnc4c(c3)[C@@]3(C)N=C(N)C5(CCC5)S(=O)(=O)[C@@H]3CCO4)nccc2n1 [Example 60] | > 400 µM | 0.135 µM | 0.037 µM | – | – | – | – | – |
| Cc1cc(C#N)cnc1C(=O)Nc1ccc2c(c1)[C@@]1(C)N=C(N)C(C)(C)S(=O)(=O)[C@@H]1CC(C)(C)O2 [Example 99, N-((4aR,11bR)-2-amino-3,3,6,6,11b-pentamethyl-4,4-dioxido-4a,5,6,11b-tetrahydro-3H-[1]benzoxepino[4,5-b][1,4]thiazin-10-yl)-5-cyano-3-methyl-2-pyridinecarboxamide] | – | – | – | – | – | > 400 µM | 0.002 µM | 0.008 µM |
| Cc1cc(Cl)cnc1C(=O)Nc1ccc2c(c1)[C@@]1(C)N=C(N)C(C)(C)S(=O)(=O)[C@H]1CCS2 [Example 115, N-((4aS,11bR)-2-amino-3,3,11b-trimethyl-4,4-dioxido-4a,5,6,11b-tetrahydro-3H-[1]benzothiepino[4,5-b][1,4]thiazin-10-yl)-5-chloro-3-methyl-2-pyridinecarboxamide] | – | – | – | – | – | 276 µM | 0.012 µM | 0.006 µM |
| Cc1cc(C(F)(F)F)cnc1C(=O)Nc1ccc2c(c1)[C@@]1(CF)N=C(N)C(C)(C)S(=O)(=O)[C@H]1CCO2 [Example 116, N-((4aS,11bS)-2-amino-11b-(fluoromethyl)-3,3-dimethyl-4,4-dioxido-4a,5,6,11b-tetrahydro-3H-[1]benzoxepino[4,5-b][1,4]thiazin-10-yl)-3-methyl-5-(trifluoromethyl)-2-pyridinecarboxamide] | – | – | – | – | – | > 400 µM | 0.014 µM | 0.011 µM |
| Cc1cc(C#N)cnc1C(=O)Nc1cnc2c(c1)[C@@]1(C)N=C(N)C3(CCC3)S(=O)(=O)[C@@H]1CCO2 [Example 62, N-((4a′R,11b′R)-2′-amino-11b′-methyl-4′,4′-dioxido-4a′,5′,6′,11b′-tetrahydrospiro[cyclobutane-1,3′-pyrido[3′,2′:6,7]oxepino[4,5-b][1,4]thiazin]-10′-yl)-5-cyano-3-methyl-2-pyridinecarboxamide] | > 400 µM | 0.06 µM | 0.015 µM | – | – | – | – | – |
| COc1cnc(C(=O)Nc2ccc3c(c2)[C@@]2(C)N=C(N)C(C)(C)S(=O)(=O)[C@H]2CCC3)c(C)c1 [Example 32, N-((4aS,11bR)-2-amino-3,3,11b-trimethyl-4,4-dioxido-3,4a,5,6,7,11b-hexahydrobenzo[3,4]cyclohepta[1,2-b][1,4]thiazin-10-yl)-5-methoxy-3-methyl-2-pyridinecarboxamide] | 1340 µM | 0.021 µM | 0.073 µM | – | > 1200 µM | – | – | – |
| Cc1cc(Cl)cnc1C(=O)Nc1ccc2c(c1)[C@]1(C)N=C(N)C(C)(C)S(=O)(=O)[C@H]1CCO2 (racemic) [Example 4, N-((4aRS,11bRS)-2-amino-3,3,11b-trimethyl-4,4-dioxido-4a,5,6,11b-tetrahydro-3H-benzo[6,7]oxepino[4,5-b][1,4]thiazin-10-yl)-5-chloro-3-methylpicolinamide] | > 100 µM | 0.01 µM | 0.004 µM | – | – | – | – | – |
| Cc1cc(C(F)(F)F)cnc1C(=O)Nc1ccc2c(c1)[C@@]1(CF)N=C(N)C(C)(C)S(=O)(=O)[C@H]1C[C@H](C)O2 [Example 105, N-((4aS,6S,11bS)-2-amino-11b-(fluoromethyl)-3,3,6-trimethyl-4,4-dioxido-4a,5,6,11b-tetrahydro-3H-[1]benzoxepino[4,5-b][1,4]thiazin-10-yl)-3-methyl-5-(trifluoromethyl)-2-pyridinecarboxamide] | – | – | – | – | – | 1480 µM | 0.013 µM | 0.004 µM |
| Cc1cc(Cl)cnc1C(=O)Nc1ccc2c(c1)[C@]1(C)N=C(N)C(C)(C)S(=O)(=O)[C@H]1CCO2 [Example 17, N-((4aS,11bS)-2-amino-3,3,11b-trimethyl-4,4-dioxido-4a,5,6,11b-tetrahydro-3H-benzo[6,7]oxepino[4,5-b][1,4]thiazin-10-yl)-5-chloro-3-methylpicolinamide] | > 400 µM | 0.833 µM | 1.46 µM | – | – | – | – | – |

Now from value to compound:

| IC50 (Cathepsin D (Cat D); read-out: CatD IC50) | IC50 ([1]; HEK cell, average IC50) | IC50 ([2]; average IC50) | IC50 ([1]; HEK cells, average IC50) | IC50 (Cathepsin D (Cat D); [3]) | IC50 (Cathepsin D (Cat D); [4]) | IC50 [1, 5] | IC50 [2, 6] | SMILES |
| --- | --- | --- | --- | --- | --- | --- | --- | --- |
| 995 µM | – | 0.004 µM | 0.006 µM | – | – | – | – | CC1(C)C(N)=N[C@]2(C)c3cc(NC(=O)c4ccc(C#CC5CC5)cn4)ccc3OCC[C@H]2S1(=O)=O [Example 193, N-((4aR,11bR)-2-amino-3,3,11b-trimethyl-4,4-dioxido-4a,5,6,11b-tetrahydro-3H-[1]benzoxepino[4,5-b][1,4]thiazin-10-yl)-5-(cyclopropylethynyl)-2-pyridinecarboxamide] |
| 441 µM | – | 0.005 µM | 0.002 µM | – | – | – | – | Cc1cc(Cl)cnc1C(=O)Nc1ccc2c(c1)[C@@]1(C)N=C(N)C(C)(C)S(=O)(=O)[C@@H]1CC(C)(C)O2 [Example 190, N-((4aR,11bR)-2-amino-3,3,6,6,11b-pentamethyl-4,4-dioxido-4a,5,6,11b-tetrahydro-3H-[1]benzoxepino[4,5-b][1,4]thiazin-10-yl)-5-chloro-3-methyl-2-pyridinecarboxamide] |
| 516 µM | – | 0.021 µM | 0.013 µM | – | – | – | – | COc1ccc(C(=O)Nc2ccc3c(c2)[C@@]2(C)N=C(N)C(C)(C)S(=O)(=O)[C@@H]2CCO3)nc1 [Example 185, N-((4aR,11bR)-2-amino-3,3,11b-trimethyl-4,4-dioxido-4a,5,6,11b-tetrahydro-3H-[1]benzoxepino[4,5-b][1,4]thiazin-10-yl)-5-methoxy-2-pyridinecarboxamide] |
| – | – | – | – | – | > 400 µM | 0.068 µM | 0.037 µM | COc1cnc2c(Nc3ccc4c(c3)[C@@]3(CF)N=C(N)C(C)(C)S(=O)(=O)[C@@H]3CCO4)nccc2n1 [Example 151, (4aR,11bS)-11b-(fluoromethyl)-N^~10^~-(2-methoxypyrido[3,4-b]pyrazin-5-yl)-3,3-dimethyl-4a,5,6,11b-tetrahydro-3H-[1]benzoxepino[4,5-b][1,4]thiazine-2,10-diamine 4,4-dioxide] |
| – | – | – | – | – | 1280 µM | 0.009 µM | 0.003 µM | Cc1cc(Cl)cnc1C(=O)Nc1ccc2c(c1)[C@@]1(CF)N=C(N)C(C)(C)S(=O)(=O)[C@H]1CCO2 [Example 147, N-((4aS,11bS)-2-amino-11b-(fluoromethyl)-3,3-dimethyl-4,4-dioxido-4a,5,6,11b-tetrahydro-3H-[1]benzoxepino[4,5-b][1,4]thiazin-10-yl)-5-chloro-3-methyl-2-pyridinecarboxamide] |
| – | – | – | – | – | 44.8 µM | 0.0008 µM | 0.003 µM | C[C@H]1C[C@@H]2[C@](C)(N=C(N)C(C)(C)S2(=O)=O)c2cc(NC(=O)c3ncc(Cl)cc3CO)ccc2O1 [Example 130, N-((4aR,6S,11bR)-2-amino-3,3,6,11b-tetramethyl-4,4-dioxido-4a,5,6,11b-tetrahydro-3H-benzo[6,7]oxepino[4,5-b][1,4]thiazin-10-yl)-5-chloro-3-(hydroxymethyl)picolinamide] |
